Laboratory results reported in patent US12156915B2, “Selected artemisinin dimers for the treatment of lashmaniasis” (priority 2020, dated 2024).
Where “and” joins values, the source holds several entries; their conditions need not be identical. Equal entries are not always repeated. Entries after “also recorded” stand apart in the source; their conditions may differ.

Tests used:
[1] = test system: L. donovani promastigotes; assay: Annexin V binding apoptosis assay (Annexin V/Propidium Iodide flow cytometry); format: cell-based, Leishmania donovani; details: for apoptotic effect on promastigotes: dimers 14 μM, artemisinin 35 μM, 24 to 72 hrs
From the text: Apoptosis, also known as programmed cell death, is a physiological process of removal of unwanted cells (37). In one of the earlier events, the process of apoptosis includes translocation of membrane phosphatidylserine from the inner side of the cell membrane to the surface (38). Annexin V is a Ca^++ dependent phospholipid-binding protein which has a high affinity for phosphatidylserine (39). So FITC-labeled Annexin V can be used for the analysis of exposed PS using a flow cytometer (40). Apoptosis analysis was done by flow cytometry using Annexin V/Propidium Iodide staining method. […] 1×10^7 promastigote cells/ml were treated with artemisinin (35 μM), dimer Morpholine (14 μM) and dimer GABA (14 μM). Aliquots were withdrawn at different time intervals and stained with FITC-Annexin V and Propidium Iodide. The cell was analyzed by flow-cytometry. […] 50,000 in a gated event were run in a FL2 (Propidium Iodide)/FL1 (Annexin FITC) and analyzed by quadrangle plot.

[2] = test system: intracellular amastigote form of L. donovani parasite in differentiated THP1 cells; assay: Parasite rescue and transformation assay (macrophage internalized amastigotes); format: cell-based, Leishmania donovani; details: for selectivity index (SI): IC50 of cytotoxicity divided by IC50 in parasite rescue and transformation assay; for IC50: Leishmania donovani, THP-1, parasite rescue and transformation assay, read-out: IC50 anti-leishmanial activity, intracellular amastigote
Protocol: This assay is based on the previously published protocol by Jain et al. (35). A 3-day old culture of THP1 cells in the exponential phase was diluted with RPMI medium to 2.5×10^5 cells/ml. PMA was added to final a concentration of 25 ng/ml. PMA treated culture was dispensed in clear flat bottom culture plates and incubated overnight at 37° C. in a 5% CO2 incubator. The plates with differentiated THP1 Cells were washed with serum-free medium with the help of Molecular device AquaMax 4000. A 5-6-day old L. donovani promastigote culture diluted to 5×10^6 cells/ml was added over differentiated THP1 cells. The Macrophage cells to parasite ratio for infection was 1:10. The plates were incubated for 24 hrs. After 24 hrs., the plates were again washed with the help of AquaMax 4000 and the serum-free medium was replaced by a medium with diluted test samples. The plates were placed again in a CO2 incubator at […] for 48 hrs. After 48 hrs., the macrophage amastigote plates were washed and treated with 0.05% SDS for 30 secs., and diluted SDS medium was immediately replaced with complete RPMI medium. Plates were incubated for amastigote to promastigote transformation, and promastigote growth at […] for 48 hrs. After 48 hrs., 5 μl of alamar blue was added to each well of macrophage amastigote assay plates, and the plates were incubated further for 24 hrs. Standard fluorescence was measured on a Fluostar Galaxy fluorometer (BMG LabTechnologies) at 544 nm ex, 590 nm em. Xlfit 5.3.1 software has generated all dose response curves.

[3] = test system: promastigote form of L. donovani parasite; assay: Leishmania donovani promastigote assay (alamar blue); format: cell-based; details: read-out: IC50 anti-leishmanial activity, promastigote
Protocol: THP-1 cells (human monocytic leukemia cells) were made available by the American Type Culture Collection (ATCC) and were maintained in RPMI 1640 media (Life-Technologies) supplemented with Sodium Pyruvate, Glutamine, HEPES (Life-81 Technologies) and 10% heat-inactivated FBS (Sigma). The culture was maintained at 37° C. in 5% CO2 incubator. THP1 cells Subculture was done every 3-4 days. Promastigote forms of Leishmania donovani (S1 strain) was grown in RPMI 1640 medium at pH 7.4 supplemented with 10% fetal bovine serum. The culture was maintained at 26° C. by incubator. Subculture was done every 3-4 days. The promastigote assay was based on alamar blue base growth analysis (33). A 3-4 day old promastigote culture in the exponential phase was diluted with RPMI 1640 medium, to 1×10^6 cells/ml. Artemisinin dimer samples were diluted to stock concentration of 2 mg/ml. Artemisinin dimer samples were dispensed in culture plates and diluted with a promastigote culture so the final highest concentration of samples was 10 μg/ml, and highest concentration of parent artemisinin was 40 μg/ml. The culture with the highest concentration of each artemisinin dimer was serially diluted in 1:5 ratio to 6 different concentrations. All artemisinin dimers were tested in triplicate. […] Standard fluorescence was measured on a Fluostar Galaxy fluorometer (BMG LabTechnologies) at 544 nm ex, 590 nm em. […]

[4] = THP1 cytotoxicity assay (alamar blue); format: cell-based; details: human, PMA-differentiated THP1 cells, 48 hrs + 24 hrs alamar blue
Protocol: THP-1 cells (human monocytic leukemia cells) were made available by the American Type Culture Collection (ATCC) and were maintained in RPMI 1640 media (Life-Technologies) supplemented with Sodium Pyruvate, Glutamine, HEPES (Life-81 Technologies) and 10% heat-inactivated FBS (Sigma). The culture was maintained at 37° C. in 5% CO2 incubator. THP1 cells Subculture was done every 3-4 days. Promastigote forms of Leishmania donovani (S1 strain) was grown in RPMI 1640 medium at pH 7.4 supplemented with 10% fetal bovine serum. The culture was maintained at 26° C. by incubator. Subculture was done every 3-4 days.
A 3-day old culture of THP1 cells in the exponential phase was diluted with RPMI medium to 2.5×10^5 cells/ml. PMA was added to final a concentration of 25 ng/ml. PMA treated culture was dispensed in clear flat bottom culture plates and incubated overnight at 37° C. in a 5% CO2 incubator. The plates with differentiated THP1 cells were washed with serum-free medium with the help of Molecular device AquaMax 4000 and the serum-free medium was replaced by a medium with diluted test samples. The plates were placed again in a CO2 incubator at […] for 48 hrs. […] Standard fluorescence was measured on a Fluostar Galaxy fluorometer (BMG LabTechnologies) at 544 nm ex, 590 nm em. […]

| SMILES | IC50 [2] [µM] | apoptotic effect on promastigotes [1] | selectivity index (SI) [2] | IC50 at 48 h [4] [µM] | further results |
| --- | --- | --- | --- | --- | --- |
| C[C@H]1[C@@H](OC/C(CO[C@H]2O[C@@H]3O[C@]4(C)CC[C@H]5[C@H](C)CC[C@@H]([C@H]2C)[C@@]35OO4)=N\O)O[C@@H]2OC3(C)CC[C@H]4[C@H](C)CC[C@@H]1[C@@]24OO3 [dimer oxime] |  |  |  | 11.4 |  |
| C[C@H]1[C@@H](OCC(CO[C@H]2O[C@@H]3O[C@@]4(C)CC[C@H]5[C@H](C)CC[C@@H]([C@H]2C)[C@@]35OO4)NCCc2c[nH]c3ccccc23)OC2O[C@@]3(C)CC[C@H]4[C@H](C)CC[C@@H]1[C@@]24OO3 (stereo partly drawn) [dimer tryptamine] |  |  |  | 7.39 |  |
| N=C(N)c1ccc(OCCCCCOc2ccc(C(=N)N)cc2)cc1 [pentamidine] | 0.545 |  | 63 |  |  |

More lines, main results first:

| IC50 [2] [µM] | SMILES | apoptotic effect on promastigotes [1] | selectivity index (SI) [2] | IC50 at 48 h [4] [µM] | further results |
| --- | --- | --- | --- | --- | --- |
| 0.007 | C[C@H]1[C@@H](OCC(CO[C@H]2O[C@@H]3O[C@@]4(C)CC[C@H]5[C@H](C)CC[C@@H]([C@H]2C)[C@@]35OO4)N2CCOCC2)OC2O[C@@]3(C)CC[C@H]4[C@H](C)CC[C@@H]1[C@@]24OO3 (stereo partly drawn) [Dimer Morpholine] | time-dependent apoptotic effect | > 2056 and > 2052 |  | population in UR area of FL2/FL1 dot plot, 48 hrs compared to 24 hrs ([1]; 14 μM): significantly (P<0.0001) higher population; population in UR area of FL2/FL1 dot plot, 72 hrs compared to 24 hrs ([1]; 14 μM): significantly (P<0.0001) higher population; population in Upper Right (UR, late apoptosis) area of FL2 (PI)/FL1 (Annexin FITC) dot plot compared to control group ([1]; 14 μM, 24 hrs): significantly (P<0.0001) higher population; population in UR area of FL2/FL1 dot plot compared to control group ([1]; 14 μM, 48 hrs): significantly (P<0.0001) higher population; population in UR area of FL2/FL1 dot plot compared to control group ([1]; 14 μM, 72 hrs): significantly (P<0.0001) higher population |
| 0.062 | C[C@@H]1[C@H](O)[C@@H](C)/C=C/C=C/C=C/C=C/C=C/C=C/C=C/[C@H](O[C@@H]2O[C@H](C)[C@@H](O)[C@H](N)[C@@H]2O)C[C@@H]2O[C@](O)(C[C@@H](O)C[C@@H](O)[C@H](O)CC[C@@H](O)C[C@@H](O)CC(=O)O[C@H]1C)C[C@H](O)[C@H]2C(=O)O [amphotericin, amphotericin B] |  | 201 |  |  |
| > 35.4 | C[C@@H]1CC[C@H]2[C@@H](C)C(=O)O[C@@H]3O[C@@]4(C)CC[C@@H]1[C@]32OO4 [artemisinin] | does not have; also recorded: does not have leishmanicidal or apoptotic effect |  |  | IC50 [3]: 99.2 µM; anti-leishmanial (leishmanicidal) effect ([1]; artemisinin at 35 μM): does not have an anti-leishmanial effect; also recorded: does not have leishmanicidal or apoptotic effect |
